From article PMC9847679, “The anti-breast cancer stem cell properties of gold(I)-non-steroidal anti-inflammatory drug complexes” (Chemical Science, 2022)

Experiments:
HMLER cells = assay: Monolayer cytotoxicity (MTT assay), HMLER cells; type: cell-based, human; conditions: 72 h incubation, MTT
Source text: (§1) Cell Lines and Cell Culture Conditions. The human mammary epithelial HMLER and HMLER-shEcad cell lines were kindly donated by Prof. R. A. Weinberg (Whitehead Institute, MIT). The human epithelial breast MCF10A, breast adenocarcinoma MDA-MB-231 and MDA-MB-468, murine epithelial breast 4T1, and embryonic kidney HEK 293 cell lines were acquired from American Type Culture Collection (ATCC, Manassas, VA, USA).
(§2) HMLER, HMLER-shEcad, and MCF10A cells were maintained in Mammary Epithelial Cell Growth Medium (MEGM) with supplements and growth factors (BPE, hydrocortisone, hEGF, insulin, and gentamicin/amphotericin-B). MDA-MB-231, MDA-MB-468, 4T1, and HEK 293 cells were maintained in Dulbecco's Modified Eagle's Medium (DMEM) supplemented with fetal bovine serum (10 %) and penicillin/streptomycin (1 %). The cells were grown at 310 K in a humidified atmosphere containing 5% CO2.
(§3) Monolayer Cytotoxicity Studies. Exponentially growing cells were seeded at a density of approximately 5 × 10^3 cells per well in 96-well flat-bottomed microplates and allowed to attach for 24 h prior to addition of compounds. Various concentrations of the test compounds (0.0004-100 μM) were added and incubated for 72 h at 37 °C (total volume 200 μl). Stock solutions of the compounds were prepared as 10 mM DMSO solutions and diluted using cell […]
(§4) media. The final concentration of DMSO in each well was ≤1 %. After 72 h, 20 μl of MTT (4 mg mL-1 in PBS) was added to each well and the plates incubated for an additional 4 h at 37 °C. The media/MTT mixture was eliminated and DMSO (100 μl per well) was added to dissolve the formazan precipitates. The optical density was measured at 550 nm using a 96-well multiscanner autoreader. Absorbance values were normalised to (DMSO-containing) control wells and plotted as concentration of test compound versus % cell viability. IC50 values were interpolated from the resulting dose dependent curves. The reported IC50 values are the average of three independent experiments (n = 18). […]
(§5) After incubation for 16 […]
(§6) h, the fluorescence of the solutions was read at 590 nm (λex = 560 nm). Viable mammospheres reduce the amount of the oxidised TOX8 form (blue) and concurrently increase the amount of the fluorescent TOX8 intermediate (red), indicating the degree of mammosphere cytotoxicity caused by the test compound. […]
(§7) Cellular Uptake. To measure the cellular uptake of 1-3 about 1 million HMLER-shEcad cells were treated with 1-3 (0.25 μM) at 37 °C for 24 h. After incubation, the media was removed, the cells were washed with PBS (2 mL × 3) and harvested. The number of cells was counted at this stage, using a haemocytometer. This mitigates any cell death induced by 1-3 at the administered concentration and experimental cell loss. The cellular pellets were dissolved in 65% HNO3 (250 µL) overnight. A cellular pellet of HMLER-shEcad cells treated with 1 was also used to determine the gold content in the nuclear, cytoplasmic and membrane fractions. The Thermo Scientific NE-PER Nuclear and Cytoplasmic Extraction Kit was used to extract and separate the nuclear, cytoplasmic and membrane fractions. The fractions were dissolved in 65% HNO3 (250 µL final volume) overnight. All samples were diluted 17-fold with water and analysed using inductively coupled plasma mass spectrometry (ICP-MS, Thermo Scientific ICAP-Qc quadrupole ICP mass spectrometer). Gold levels are expressed as mass of Au (ng) per million cells. Results are presented as the mean of four determinations for each data point.
(§8) Intracellular ROS Assay. […]

HMLER-shEcad cells [1] = assay: Monolayer cytotoxicity (MTT assay), HMLER-shEcad cells; type: cell-based, human; conditions: 72 h incubation, MTT
Source text: as §1, §2, §3, §4, §5, §6, §7, §8

MDA-MB-468 cells = assay: Monolayer cytotoxicity (MTT assay), MDA-MB-468 cells; type: cell-based, human; conditions: 72 h incubation
Source text: as §1, §2, §3, §4
Cellular Uptake. […]

4T1 cells = assay: Monolayer cytotoxicity (MTT assay), 4T1 cells; type: cell-based, murine; conditions: 72 h incubation
Source text: as §1, §2, §3
media. The final concentration of DMSO in each well was ≤1 %. […] The optical density was measured at 550 nm using a 96-well multiscanner autoreader. Absorbance values were normalised to (DMSO-containing) control wells and plotted as concentration of test compound versus % cell viability. […]
h, the fluorescence of the solutions was read at 590 nm (λex = 560 nm). […]
Cellular Uptake. […] The number of cells was counted at this stage, using a haemocytometer. […] All samples were diluted 17-fold with water and analysed using inductively coupled plasma mass spectrometry (ICP-MS, Thermo Scientific ICAP-Qc quadrupole ICP mass spectrometer). Gold levels are expressed as mass of Au (ng) per million cells. […]

HMLER-shEcad cells [2] = assay: FITC Annexin V-propidium iodide assay; type: cell-based, human; conditions: IC50 value ×2, 48 h
Protocol: Annexin V-Propidium Iodide Assay. HMLER-shEcad cells were incubated with and […]
harvested from adherent cultures by trypsinisation. The FITC Annexin V/Dead Cell Apoptosis Kit was used. The manufacture’s (Thermo Fisher Scientific) protocol was followed to carry out this experiment.
1× Annexin binding buffer (100 µL) (10 mM HEPES, 140 mM NaCl, 2.5 mM CaCl2, pH 7.4), then 5 µL FITC Annexin V and 1 µL PI (100 µg/ mL) were added to each sample and incubated at room temperature for 15 min. After which more 1× Annexin binding buffer (400 µL) was added while gently mixing. The cells were analysed using a FACSCanto II flow cytometer (BD Biosciences) (10,000 events per sample were acquired) at the University of Leicester FACS Facility. The FL1 channel was used to assess Annexin V binding and the FL2 channel was used to assess PI uptake. Cell populations were analysed using the FlowJo […]
ice-cold methanol (for 30 min), and suspended in PBS (200 μL). […]
COX-2 Inhibition Enzyme Immunoassay (EIA). […]
(ovine) Inhibitor Screening Assay (Cayman Chemicals).” The assay was performed according to the manuf acturer’s instructions using a 96-well plate set up.

COc1ccc2c(c1)c(CC(=O)[O][Au][PH](c1ccccc1)(c1ccccc1)c1ccccc1)c(C)n2C(=O)c1ccc(Cl)cc1 [complex 1]
IC50 (HMLER cells): 0.19 ± 0.01 µM
IC50 (HMLER-shEcad cells [1]): 0.056 ± 0.001 µM
IC50 (MDA-MB-468 cells): 4.47 ± 0.17 µM
IC50 (4T1 cells): 2.24 ± 0.11 µM
apoptosis induction (HMLER-shEcad cells [2]): induced large populations of cells to undergo late-stage apoptosis
